Laboratory results from the NIST ThermoML archive (doi:10.1016/j.jct.2015.02.023).
Numbers after ± are expanded uncertainties.

Tests used:
[1] = 101.33 kPa, Liquid, Vibrating tube method
[2] = activity coefficient (dimensionless); of the first substance listed, at infinite dilution; xn = mol fraction of the nth substance listed; details: 101.33 kPa, Liquid, Chromatography, x1 = 0

Compound | activity coefficient ([2]; 313.15 K) | activity coefficient ([2]; 333.15 K) | activity coefficient ([2]; 353.15 K) | activity coefficient ([2]; 373.15 K) | other results
CCn1cc[n+](C)c1.CO[PH](=O)[O-] [1-ethyl-3-methylimidazolium methyl phosphonate] |  |  |  |  | mass density ([1]; 293.15 K): 1190.6 ± 1.6 kg/m3; mass density ([1]; 303.15 K): 1184.1 ± 1.6 kg/m3; mass density ([1]; 313.15 K): 1180.1 ± 1.6 kg/m3; mass density ([1]; 323.15 K): 1174 ± 1.6 kg/m3; mass density ([1]; 333.15 K): 1168.7 ± 1.6 kg/m3; mass density ([1]; 343.15 K): 1163.2 ± 1.5 kg/m3
CCCC(C)=O [pentan-2-one] + CCn1cc[n+](C)c1.CO[PH](=O)[O-] | 6.12 ± 0.42 | 6.13 ± 0.42 | 6.15 ± 0.42 | 6.18 ± 0.42 | 
CCN(CC)CC [triethylamine] + CO[PH](=O)[O-].Cn1cc[n+](C)c1 | 9.04 ± 0.62 |  |  |  | activity coefficient ([2]; 323.15 K): 12.7 ± 0.9
CCCCCCCC [octane] + CCn1cc[n+](C)c1.CO[PH](=O)[O-] | 461 ± 32 |  |  |  | 
CCCCCCCCCCC [undecane] + CCn1cc[n+](C)c1.CO[PH](=O)[O-] | 1340 ± 93 | 1080 ± 74 | 888 ± 61 |  | 
CO[PH](=O)[O-].Cn1cc[n+](C)c1 [1,3-dimethylimidazolium methyl phosphonate] |  |  |  |  | mass density ([1]; 293.15 K): 1252.5 ± 1.8 kg/m3; mass density ([1]; 303.15 K): 1246.4 ± 1.8 kg/m3; mass density ([1]; 313.15 K): 1241.7 ± 1.8 kg/m3; mass density ([1]; 323.15 K): 1233.4 ± 1.8 kg/m3; mass density ([1]; 333.15 K): 1227.2 ± 1.7 kg/m3; mass density ([1]; 343.15 K): 1220.8 ± 1.7 kg/m3
Cc1cccc(C)c1 [1,3-dimethylbenzene] + CCn1cc[n+](C)c1.CO[PH](=O)[O-] | 18.6 ± 1.3 | 18.8 ± 1.3 | 20.4 ± 1.4 | 24.9 ± 1.7 | 
CCCCO [butan-1-ol] + CCn1cc[n+](C)c1.CO[PH](=O)[O-] |  |  | 0.308 ± 0.031 | 0.324 ± 0.032 | 
CCCCCCCCCCCC [dodecane] + CO[PH](=O)[O-].Cn1cc[n+](C)c1 | 2350 ± 160 | 1790 ± 120 |  |  | activity coefficient ([2]; 323.15 K): 1920 ± 130
c1ccccc1 [benzene] + CCn1cc[n+](C)c1.CO[PH](=O)[O-] | 3.44 ± 0.23 | 3.52 ± 0.24 | 3.61 ± 0.25 | 3.75 ± 0.26 | 
CCC[N+](=O)[O-] [1-nitropropane] + CCn1cc[n+](C)c1.CO[PH](=O)[O-] | 2.68 ± 0.18 | 2.69 ± 0.18 | 2.75 ± 0.19 | 2.8 ± 0.19 | 
CCOCC [diethyl ether] + CCn1cc[n+](C)c1.CO[PH](=O)[O-] | 1.99 ± 0.14 | 2.43 ± 0.17 | 3.5 ± 0.24 | 4.6 ± 0.31 | 
CC1CCCCC1 [methylcyclohexane] + CCn1cc[n+](C)c1.CO[PH](=O)[O-] | 211 ± 15 | 70.8 ± 4.9 |  |  | 
CC(C)CO [2-methyl-1-propanol] + CCn1cc[n+](C)c1.CO[PH](=O)[O-] |  |  | 0.292 ± 0.031 | 0.309 ± 0.031 | 
CC(C)O [propan-2-ol] + CCn1cc[n+](C)c1.CO[PH](=O)[O-] |  | 0.261 ± 0.03 | 0.294 ± 0.031 | 0.314 ± 0.031 | 
c1ccncc1 [pyridine] + CO[PH](=O)[O-].Cn1cc[n+](C)c1 | 2.15 ± 0.15 | 2.17 ± 0.15 |  |  | activity coefficient ([2]; 323.15 K): 2.16 ± 0.15; activity coefficient ([2]; 343.15 K): 2.19 ± 0.15
Cc1cccc(C)c1 [1,3-dimethylbenzene] + CO[PH](=O)[O-].Cn1cc[n+](C)c1 | 24.5 ± 1.7 | 23.6 ± 1.6 |  |  | activity coefficient ([2]; 323.15 K): 24.4 ± 1.7; activity coefficient ([2]; 343.15 K): 23.1 ± 1.6
C1COCCO1 [1,4-dioxane] + CCn1cc[n+](C)c1.CO[PH](=O)[O-] | 3.4 ± 0.23 | 3.55 ± 0.24 | 3.87 ± 0.26 | 4.33 ± 0.29 | 
CCc1ccccc1 [ethylbenzene] + CO[PH](=O)[O-].Cn1cc[n+](C)c1 | 22.7 ± 1.6 | 21.7 ± 1.5 |  |  | activity coefficient ([2]; 323.15 K): 22.1 ± 1.5; activity coefficient ([2]; 343.15 K): 21.5 ± 1.5
Cc1ccccc1 [toluene] + CCn1cc[n+](C)c1.CO[PH](=O)[O-] | 6.53 ± 0.45 | 6.63 ± 0.45 | 6.82 ± 0.46 | 7.16 ± 0.49 | 
CCC(C)=O [butanone] + CO[PH](=O)[O-].Cn1cc[n+](C)c1 | 5.52 ± 0.38 | 4.66 ± 0.32 |  |  | activity coefficient ([2]; 323.15 K): 5.16 ± 0.35; activity coefficient ([2]; 343.15 K): 4.17 ± 0.28
CCCO [propan-1-ol] + CO[PH](=O)[O-].Cn1cc[n+](C)c1 |  |  |  |  | activity coefficient ([2]; 343.15 K): 0.25 ± 0.03
CC1CCCC1 [methylcyclopentane] + CCn1cc[n+](C)c1.CO[PH](=O)[O-] | 76 ± 5 |  |  |  | 
